The record followed here is patent US20250257060A1, “OXADIAZOLE COMPOUND, PHARMACEUTICAL COMPOSITION COMPRISING SAME, AND USE THEREOF” (SUZHOU GENHOUSE BIO CO., LTD., priority 2022, published 2025).

Like-named read-outs stand apart in the source and are kept apart here.

Data set [1] in a line: Brain-to-blood drug concentration ratio of mice. The data set is classed as in vivo. The settings on record: mouse; for Kp at 1 h / Kp at 4 h: brain/plasma. The method in brief: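 Mice (9/group) dosed once IV or PO; orbital blood into K2-EDTA tubes for plasma, with brain homogenate, processed by acetonitrile precipitation (propafenone internal standard) and measured by LC-MS/MS. Ratio taken as brain tissue concentration over plasma concentration at the same time point.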

The subject of data set [2] is Salmonella typhimurium auxotroph strains TA98 and TA100. The experiment in a line: Ames assay (mutagenicity test). The data set is classed as cell-based. The settings on record: TA98 and TA100, with or without S9. The protocol:
The test strains adopted in the mutagenicity test were Salmonella typhimurium auxotroph strains TA98 and TA100. The test was performed using a 6-well plate in the presence or absence of the S9 metabolic activation system, with both a solvent control group (DMSO) and a positive control group set, with 2 replicate wells per treatment group. Compounds were set at 5 concentrations ranging from 62.5 μg/well to 1000.0 μg/well (equivalent to 312.5 μg/dish to 5000.0 μg/dish in the standard Ames assay). The plate was incubated at 37° C. for 48-72 h, and then bacterial toxicity was measured in each well and the number of mutant colonies in each well was counted. When the number of revertant colonies of the test compound groups is more than twice the number of spontaneous revertant colonies of the solvent control group in a reproducible and dose-dependent manner, the test substance is considered to have positive mutagenicity for the test strain.
In this test, dimethyl sulfoxide (DMSO) was used to dissolve the test substance and served as a negative (solvent) control. In the S9-free group (−S9), 2-nitrofluorene and sodium azide were used as positive controls for TA98 and TA100, respectively; in the S9 group (+S9), 2-aminofluorene was used as a positive control for TA98 and TA100.

The mark [3] stands for this setting: brain, 2 mg/kg IV, read-out: Brain drug concentration.
Where [4] appears, read: brain, 10 mg/kg PO, read-out: Brain drug concentration.
[5] abbreviates: plasma, 2 mg/kg IV, read-out: Blood drug concentration.
Where [6] appears, read: plasma, 10 mg/kg PO, read-out: Blood drug concentration.

What is called Kp is tissue or fluid exposure divided by exposure in the circulation. Regarding `CC(F)(F)C(=O)N[C@@H]1CCCC[C@H]1N1Cc2ccc(-c3nnc(C(F)F)o3)cc2S1(=O)=O` [Compound 1], the concentration at 1 h was determined as 285 ng/mL in data set [1] (setting [3]), 759 ng/mL in data set [1] (setting [4]), 986 ng/mL in data set [1] (setting [5]) and 4270 ng/mL in data set [1] (setting [6]). Further, the concentration at 4 h turned out to be 161 ng/mL in data set [1] (setting [3]), 373 ng/mL in data set [1] (setting [4]), 453 ng/mL in data set [1] (setting [5]) and 2500 ng/mL in data set [1] (setting [6]). Moreover, the Kp at 1 h in data set [1] (2 mg/kg IV) was determined as 0.29; in data set [1] (10 mg/kg PO) it was 0.18. Further, the Kp at 4 h in data set [1] (2 mg/kg IV) worked out at 0.36; in data set [1] (10 mg/kg PO) it was 0.15.
Consider `O=C(N[C@@H]1CCCC[C@H]1N1Cc2ccc(-c3nnc(C(F)F)o3)cc2S1(=O)=O)C(F)F` [Compound 2], for which the concentration at 1 h came out at 268 ng/mL in data set [1] (setting [3]), 882 ng/mL in data set [1] (setting [4]), 1090 ng/mL in data set [1] (setting [5]) and 4990 ng/mL in data set [1] (setting [6]). The concentration at 4 h in data set [1] (setting [3]) worked out at 149 ng/mL; in data set [1] (setting [4]) it was 435 ng/mL; in data set [1] (setting [5]) it was 595 ng/mL; in data set [1] (setting [6]), 2830 ng/mL. Besides, the Kp at 1 h in data set [1] (2 mg/kg IV) is 0.26; in data set [1] (10 mg/kg PO) it was 0.18. The Kp at 4 h worked out at 0.25 in data set [1] (2 mg/kg IV) and 0.15 in data set [1] (10 mg/kg PO).
Take `O=C(N[C@H]1[C@H](N2Cc3ccc(-c4nnc(C(F)F)o4)cc3S2(=O)=O)CCCC1(F)F)C(F)F` [Compound 61]: in data set [2], the “Pollutant mutagenicity test results” value is listed as “Negative”.
